89 compounds from a melting point compilation (Tetko et al.; mined from patent text by program, amines drawn as free bases though some values may be those of a salt) can be followed below.

As for `CC(C)(C(=O)c1ccc(S)cc1)N1CCOCC1`, the melting point (usually the temperature of the solid-liquid transition) is 68 to 69 °C.
With `CC(C)Oc1ccccc1OCCCN1CCC(C(O)(c2ccc(F)cc2)c2ccc(F)cc2)CC1` the figure was 75 to 79 °C.
To `O=C(O)COCC(=O)CCCCCCCCCC(=O)NONC(=O)O` belongs 64 to 67 °C.
Regarding `CCOC(=O)C(=O)CC(=O)c1cccc(Cl)c1Cl`, the melting point fell in the range of 57 to 58 °C.
With `CC(C)C(=O)N[C@@H](CSC(=O)C(C)C)C(=O)NCCSC(=O)C(C)(C)C` the figure was 105 to 107 °C; with `CCCCCCC(C(=O)O)n1cnc(NC(=O)c2cccc(O)c2S(=O)(=O)O)c1` (centres undefined), 238 to 240 °C; with `CC1COCc2nc3c(N)nc4c(c3n21)CCCC4` (centres undefined), 209 to 211 °C.
To `CCCCn1nc(CCc2cccs2)nc1Cc1ccc(-c2ccccc2-c2nnn[nH]2)nc1` belongs 116 to 118 °C; to `Cc1c(C2CCN(Cc3ccc(Cl)cc3)CC2)n[nH]c1-c1ccccc1`, 192 to 193 °C; to `COC(=O)c1nc2ccccc2o1`, 101 to 102 °C.
To `O=C(c1c(-c2ccccc2)oc2ccccc2c1=O)N1CCN(c2ccccn2)CC1` belongs 178 to 181 °C; to `CC(=O)c1c2c(c(C)[nH]c1=O)CC(c1ccccn1)CC2` (centres undefined), 254 to 256 °C.
With `Cc1cc(Cc2ccccc2)nc(Nc2ccc(C(=O)NN)c(F)c2)n1`, the melting point was 191 to 193 °C.
To `CCOC(=O)c1cn2c(cc(Br)c3ccccc32)n1` belongs 205 to 207 °C; to `COc1ccc([C@@H]2C[C@H]2CNC(=O)N(C)O)cc1` (relative stereo), 112 °C.
To `COc1cc(Nc2nccc(-c3ccc(NC4CCN(Cc5ccccc5)CC4)nc3)n2)cc(OC)c1OC` belongs 113 to 114 °C; to `Cc1nc2c(OCc3c(Cl)ccc([N+](=O)[O-])c3Cl)cccn2c1Br`, 217 to 219 °C.
`CC(Cl)C(=O)Oc1coccc1=S` (centres undefined) gave a melting point of 118 to 119 °C.
With `CC(=O)OCCN(C(=O)CBr)c1ccc(Cl)cc1C(=O)c1ccccc1F` the figure was 84 to 88 °C; with `COC(=O)CNC(=O)c1cc(C(=O)OC)c(O)c2ncc(Cc3ccc(F)cc3)cc12`, 209 to 210 °C.
With `C=CC(O)C1=C(C)C(=NO)CCC1(C)C` (centres undefined) the figure was 138 to 142 °C.
To `Nc1nc2c(ncn2C2C=CC(CO)O2)c(=O)[nH]1` (centres undefined) belongs more than 250 °C; to `COc1cc2cc3c(Nc4ccc(Sc5nccn5C)c(Cl)c4)c(C#N)cnc3cc2cc1OCCn1ccnn1`, 201 to 207 °C.
`CC(C)CNC(=O)c1sc(Oc2ccc3c(c2)OCO3)c2c1CCc1cnn(C)c1-2` came in with a melting point of 155 to 157 °C.
To `Cc1ccc(Cn2nnc(C(N)=O)c2N)cc1` belongs 223 to 225 °C.
To `CCN1C(C(=O)Nc2ccccc2)=C(O)c2ccc3ccccc3c2S1(=O)=O` belongs 245 to 247 °C; to `COc1cc(C)ccc1S(=O)(=O)OCC(=O)c1ccccc1`, 89 °C.
For the compound `CN1CCC[C@@H]1Cc1c[nH]c2ccc(CS(=O)(=O)NC(C)(C)C)cc12`, the melting point lay within 73 to 75 °C.
In turn, `COC(C)c1ccc(C=C(C)c2ccc3c(c2)C(C)(C)CCC3(C)C)cc1` (centres undefined) yielded a melting point of 88 to 89 °C.
For `Cc1cc2c(cc1CO)CCC(CCN1CCCC1)=C2`, the melting point was 76 to 77 °C.
`COc1ccc2c(c1)CCC1C2=CCC2(C)C(OC(C)=O)CCC12` (centres undefined) came in with a melting point of 114 to 116 °C.
To `CC(=O)N1CCc2ccc(C(=O)NO)cc2C1` belongs 177 to 181 °C.
With `CCN(CC)Cc1nc(-c2ncn3c2CN(C)C(=O)c2c(Cl)cccc2-3)no1` the figure was 250 to 252 °C; with `COc1ccc(C2=NN(CC(=O)Nc3cccc(-c4nnc(=O)sc4C)c3)C(=O)[C@H]3CC=CC[C@@H]23)cc1OC` (relative stereo), 157 to 161 °C; with `Clc1cccnc1-c1ccc2[nH]nc(Nc3cnccn3)c2c1`, 228 to 230 °C.
To `Cc1ccc(-c2nc3ccc(N4C[C@H]5CN(C)C[C@H]5C4)nn3c2-c2ccncc2)o1` belongs 178 to 181 °C.
Turning to `CCC(=O)Oc1ccc(C(=O)CC)cc1F`, the melting point was in the range of 104 to 106 °C.
As to `CCN(CC)CCSC1=C(C#N)C(c2ccc(OC)cc2)(c2cccnc2)C(=O)N1` (centres undefined), the melting point turned out to be 133 °C.
With `FC(F)(F)c1ccc(C(Cl)=NN=Cc2ccccc2)cc1` the figure was 95 to 96 °C; with `CNc1ccc2cc(Br)ccc2c1[N+](=O)[O-]`, 169 to 170 °C; with `Cc1cc([N+](=O)[O-])c2c(c1Cl)CC(C)O2` (centres undefined), 114 to 116 °C.
In the case of `CC(C)(C)c1ccc(-c2nnc(-c3ccc(C(=O)O)cc3)o2)cc1`, the melting point was 284 to 286 °C.
With `O=C(C(=Cc1ccccc1)c1ccccc1)c1ccc(O)cc1` the figure was 186 to 190 °C; with `O=C(O)CCC(=O)N1CCc2cc(S(=O)(=O)N3CCN(c4cccc(C(F)(F)F)c4)CC3)ccc21`, 274 to 276 °C.
`CCOc1ccc(C2=NN(C3CCN(C(=O)Nc4ccccc4)CC3)C(=O)[C@@H]3CC=CC[C@H]23)cc1OCC` gave a melting point of 109 to 112 °C.
With `O=C1CC2(C(=O)N1)C(=O)N1CCCc3cccc2c31` (centres undefined) the figure was 253 to 255 °C.
With `CNC(=O)Oc1ccc(NC(=O)C(F)(F)Cl)c(C)c1` the figure was 156 to 158 °C.
`COC1=C(OC)C(=O)C2=C(CCC(CCn3cnc4ccccc43)CC2)C1=O` showed a melting point of 159 to 163 °C.
In turn, `CN1C(=O)C2CC(c3ccc(Cl)cc3)(C2)C1=O` returned a melting point of 155 to 156 °C.
The compound `CNC(=O)Oc1ccc(N=Cc2ccccc2O)c2ccccc12` registered a melting point of 143 to 146 °C.
With `Cc1ccc2[nH]c3c(c2c1)C(C(=O)OCc1ccccc1)CCC3` (centres undefined) the figure was 115 to 117 °C; with `N=C(N)NNC(=O)c1cccc(-c2csc(N=C(N)N)n2)n1`, 194 to 196 °C; with `CCN(CC)S(=O)(=O)c1ccc(C=CC(C)(O)C(F)(F)F)cc1` (centres undefined), 112 to 117 °C.
To `O=C(CCl)c1cc2c(s1)SCCc1cc(=O)n(-c3ccc(Cl)cc3)nc1-2` belongs 178 to 180 °C; to `COC(=O)CCCCCCCCCNS(=O)(=O)c1ccc(Cl)cc1`, 68 to 70 °C; to `CCOC(=O)C(C(=O)OCC)=C1NC(=O)N(c2ccc([N+](=O)[O-])cc2OC)C1=O`, 170 to 172 °C.
Turning to `CSc1ncncc1C(Cl)c1ccccc1F` (centres undefined), the melting point lay in the range of 144 to 145 °C.
To `O=c1c(CO)cc(-c2ccc3c(c2)CCO3)nn1CC1CC1` belongs 115 to 117 °C; to `COc1ccc(-c2nc(C(=O)NCCO)c[nH]2)cc1OC1CCCC1`, 206 to 208 °C; to `CCn1cc(CN(C(=O)C2CCCc3cc(OC)ccc32)c2ccc(C(C)C)cc2)cn1` (centres undefined), 111 to 113 °C.
To `CCOC1CN(Cc2ccc(OC)cc2)Cc2cc(OC)c(O)cc21` (centres undefined) belongs 154 to 157 °C; to `Cn1cc(SC(F)(F)F)c(=O)c(-c2cccc(C(F)(F)F)c2)c1`, 122 to 124 °C; to `CC1CC(=O)NN=C1c1ccc2c(c1)N(C)C(=O)C(C)O2` (centres undefined), 184 to 185 °C.
To `Cc1cn(C)c(C(=O)NS(=O)(=O)c2ccccc2Cl)n1` belongs 230 to 231 °C.
For the compound `CCOc1ccc(C[N+](=O)[O-])c(C=CC[N+](=O)[O-])c1OCc1ccccc1`, the melting point lay in the range of 89 to 90 °C.
`CC(C)n1nc(-c2cc(-c3ccccc3)c(N)nc2-c2ccccc2)ccc1=O` displayed a melting point of 208 to 209 °C.
To `Cc1ccc(Oc2ccc(NN)cc2)c(O)c1` belongs 145 to 148 °C; to `CC1(C)CCc2c(N3CCOCC3)nc3sc4c(NCc5ccco5)ncnc4c3c2C1`, 210 to 211 °C; to `Fc1cccc(F)c1C1=NC(c2cc3sc(-c4ccc(OC(F)(F)F)cc4)cc3s2)CC1` (centres undefined), 135 °C.
To `COc1ccc(O)c(CN2CCN(C(=S)SC)CC2)c1` belongs 112 °C; to `Cc1cc(-c2cc3c(OC[C@@H](O)CN4CCC(c5ccc6ccccc6c5)CC4)cccc3o2)nn1C`, 155 to 157 °C; to `CCCCN(C(=O)NCCCCCCNC(=O)N(CCCC)C1CC(C)(CC)NC(C)(CC)C1C)C1CC(C)(CC)NC(C)(CC)C1C` (centres undefined), 146 °C.
The compound `O=C1NCCc2c(-c3cccnc3)[nH]c3cccc1c23` showed a melting point of 260 to 262 °C.
With `CCC(C)CNc1nc2ccc(Sc3nnc4n3N=C(c3ccc(F)cc3)CC4)cc2s1` (centres undefined) the figure was 220 °C; with `CCCC(=O)Nc1n[nH]c2cc(Cl)c(Br)cc12`, 250 °C.
With `C[Si](C)(C)C#Cc1ccc(-n2c(-c3ccccc3)ccc2-c2ccccc2)cc1` the figure was 183 to 184 °C.
With `CSc1cc2c(cc1C(F)(F)F)N(C(=O)Nc1cccc(C(=O)NCCN3CCCCC3)c1)CC2` the figure was 79 to 81 °C.
`CCc1nc(C)c(CCC(=O)N(CC)CC)c(=O)n1Cc1ccc(-c2ccccc2-c2nnn[nH]2)cc1`: the melting point was 100 to 105 °C.
To `CC(O)CNc1c(F)cc2c(=O)c(C(=O)O)cn(-c3cc(N)c(F)cc3F)c2c1Cl` (centres undefined) belongs 225 to 226 °C.
On to `BrCC(Br)c1ccc(C(Br)CBr)cc1` (centres undefined), for which the melting point is 155 to 157 °C.
With `CCc1cc(C(C)=O)c(O)cc1OCCCCCCc1nnn[nH]1` the figure was 126 to 127 °C.
With `Cn1c(=O)n(Cc2ccccc2)c(=O)c2cc(C(=O)CCc3ccccc3)ccc21` the figure was 155 °C; with `O=C1CCC(c2ccc(C3CCCC3)cc2)=NN1`, 191 to 192 °C.
With `CN(C)C(=O)COc1cc(Cl)ccc1C(=O)O` the figure was 141 to 142 °C.
`Cc1noc(C)c1S(=O)(=O)Nc1cc(-c2ncc(C(F)(F)F)cc2Cl)ccc1Cl`: the melting point was in the range of 161 to 162 °C.
To `O=c1nc(-c2cccc(CSc3ccccn3)n2)sc2ccccc12` belongs 151 to 152 °C; to `CS(=O)(=O)Nc1cccc([N+](=O)[O-])c1`, 237 °C; to `Cc1nc(O)c(F)c(Cl)n1`, 214 to 216 °C.
With `O=C(O)C(=O)c1ccc(OCCCOc2ccccc2)cc1` the figure was 50 to 52 °C.
